In article PMC9851200, “Multiparameter phenotypic screening for endogenous TFEB and TFE3 translocation identifies novel chemical series modulating lysosome function” (Autophagy, 2022):

Key:
[1] = tested on: SRPK1, SRPK2; assay: KiNativ in-cell kinase binding, SRPK1, SRPK2; settings: 2 µM
Excerpt: As KINOMEscan is an in vitro assay, and as different cell types have variable kinase expression profiles we sought to determine the kinase binding profile in our SH-SY5Y TFEB-relocalization cell model. […] Bound kinases were pulled down and analyzed by mass spectrometry to determine the in situ kinase binding profile for each compound.

[2] = target: kinases (KINOMEscan panel) (Homo sapiens, UniProt P31152); type: binding
[3] = target: kinases (KINOMEscan panel) (Homo sapiens, UniProt Q13163); type: binding
[4] = target: kinases (KINOMEscan panel) (Homo sapiens, UniProt P46734); type: binding
[5] = target: kinases (KINOMEscan panel) (Homo sapiens, UniProt Q8IY84); type: binding
[6] = target: kinases (KINOMEscan panel) (Homo sapiens, UniProt P45985); type: binding
[7] = target: kinases (KINOMEscan panel) (Homo sapiens, UniProt P08581); type: binding
[8] = target: kinases (KINOMEscan panel) (Homo sapiens, UniProt Q12852); type: binding
[9] = target: kinases (KINOMEscan panel) (Homo sapiens, UniProt Q16659); type: binding
[10] = target: kinases (KINOMEscan panel) (Homo sapiens, UniProt Q05397); type: binding
[11] = target: kinases (KINOMEscan panel) (Homo sapiens, UniProt P0C264); type: binding
[12] = target: kinases (KINOMEscan panel) (Homo sapiens, UniProt Q02763); type: binding
[13] = target: kinases (KINOMEscan panel) (Homo sapiens, UniProt P45983); type: binding
[14] = target: kinases (KINOMEscan panel) (Homo sapiens, UniProt Q9NY57); type: binding
[15] = target: kinases (KINOMEscan panel) (Homo sapiens, UniProt P28482); type: binding
kinases (KINOMEscan panel) (Homo sapiens, UniProt P28482), sequence (P28482 whole entry): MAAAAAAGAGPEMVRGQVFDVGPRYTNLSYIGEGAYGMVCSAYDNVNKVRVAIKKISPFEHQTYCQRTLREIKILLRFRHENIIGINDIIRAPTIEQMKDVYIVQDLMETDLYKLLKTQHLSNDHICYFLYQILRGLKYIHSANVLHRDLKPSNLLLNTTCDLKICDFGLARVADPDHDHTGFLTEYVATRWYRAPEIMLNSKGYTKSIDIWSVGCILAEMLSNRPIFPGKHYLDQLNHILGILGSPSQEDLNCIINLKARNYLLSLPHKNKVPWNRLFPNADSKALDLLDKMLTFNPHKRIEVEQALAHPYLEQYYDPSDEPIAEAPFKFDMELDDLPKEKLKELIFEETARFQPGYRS

[16] = target: kinases (KINOMEscan panel) (Homo sapiens, UniProt O75582); type: binding; settings: NEW KINOMEscan
kinases (KINOMEscan panel) (Homo sapiens, UniProt O75582), sequence (O75582 whole entry): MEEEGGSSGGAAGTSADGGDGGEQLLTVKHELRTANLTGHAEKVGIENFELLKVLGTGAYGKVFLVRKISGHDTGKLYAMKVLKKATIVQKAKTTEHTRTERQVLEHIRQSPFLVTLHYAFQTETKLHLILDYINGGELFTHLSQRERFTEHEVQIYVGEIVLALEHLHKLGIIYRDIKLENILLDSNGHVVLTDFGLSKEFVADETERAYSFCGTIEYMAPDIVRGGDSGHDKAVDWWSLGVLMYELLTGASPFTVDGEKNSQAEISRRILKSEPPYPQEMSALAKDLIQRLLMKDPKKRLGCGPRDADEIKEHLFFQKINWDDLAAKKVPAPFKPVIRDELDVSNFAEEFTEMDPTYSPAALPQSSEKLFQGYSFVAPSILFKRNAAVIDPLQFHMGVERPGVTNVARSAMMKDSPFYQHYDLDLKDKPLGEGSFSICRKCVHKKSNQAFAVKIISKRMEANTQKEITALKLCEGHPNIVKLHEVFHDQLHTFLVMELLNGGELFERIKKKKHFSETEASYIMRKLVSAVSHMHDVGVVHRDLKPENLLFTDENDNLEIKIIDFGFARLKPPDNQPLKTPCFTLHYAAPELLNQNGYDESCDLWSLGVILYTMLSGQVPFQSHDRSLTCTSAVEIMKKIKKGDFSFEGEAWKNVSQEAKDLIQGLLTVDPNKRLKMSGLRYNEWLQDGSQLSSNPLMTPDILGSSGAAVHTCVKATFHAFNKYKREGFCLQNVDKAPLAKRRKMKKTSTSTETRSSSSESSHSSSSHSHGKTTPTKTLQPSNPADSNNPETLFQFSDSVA

[17] = target: kinases (KINOMEscan panel) (Homo sapiens, UniProt Q9Y2H1); type: binding
[18] = target: kinases (KINOMEscan panel) (Homo sapiens, UniProt O94768); type: binding
[19] = target: kinases (KINOMEscan panel) (Homo sapiens, UniProt P51812); type: binding
kinases (KINOMEscan panel) (Homo sapiens, UniProt P51812), sequence (P51812 whole entry): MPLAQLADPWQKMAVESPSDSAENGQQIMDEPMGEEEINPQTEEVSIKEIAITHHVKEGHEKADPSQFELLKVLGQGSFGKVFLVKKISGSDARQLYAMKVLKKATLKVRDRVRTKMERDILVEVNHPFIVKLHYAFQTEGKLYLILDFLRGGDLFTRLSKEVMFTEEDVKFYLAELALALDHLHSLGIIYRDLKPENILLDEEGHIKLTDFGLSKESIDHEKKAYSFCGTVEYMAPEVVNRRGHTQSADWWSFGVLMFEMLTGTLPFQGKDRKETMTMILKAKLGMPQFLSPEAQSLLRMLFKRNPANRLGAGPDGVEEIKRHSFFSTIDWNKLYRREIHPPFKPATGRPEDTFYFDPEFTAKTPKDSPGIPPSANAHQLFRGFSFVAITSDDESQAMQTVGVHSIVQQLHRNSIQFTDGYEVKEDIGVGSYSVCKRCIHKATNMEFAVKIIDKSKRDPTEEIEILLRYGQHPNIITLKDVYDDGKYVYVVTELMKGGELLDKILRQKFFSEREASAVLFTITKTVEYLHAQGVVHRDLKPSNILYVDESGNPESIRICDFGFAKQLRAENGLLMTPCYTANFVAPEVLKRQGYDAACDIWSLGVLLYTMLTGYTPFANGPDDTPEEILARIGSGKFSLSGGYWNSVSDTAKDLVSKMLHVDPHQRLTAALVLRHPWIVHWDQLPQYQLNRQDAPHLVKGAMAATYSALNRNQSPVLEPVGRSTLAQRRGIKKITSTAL

[20] = target: kinases (KINOMEscan panel) (Homo sapiens, UniProt P52564); type: binding
[21] = target: kinases (KINOMEscan panel) (Homo sapiens, UniProt Q15418); type: binding
kinases (KINOMEscan panel) (Homo sapiens, UniProt Q15418), sequence (Q15418 whole entry): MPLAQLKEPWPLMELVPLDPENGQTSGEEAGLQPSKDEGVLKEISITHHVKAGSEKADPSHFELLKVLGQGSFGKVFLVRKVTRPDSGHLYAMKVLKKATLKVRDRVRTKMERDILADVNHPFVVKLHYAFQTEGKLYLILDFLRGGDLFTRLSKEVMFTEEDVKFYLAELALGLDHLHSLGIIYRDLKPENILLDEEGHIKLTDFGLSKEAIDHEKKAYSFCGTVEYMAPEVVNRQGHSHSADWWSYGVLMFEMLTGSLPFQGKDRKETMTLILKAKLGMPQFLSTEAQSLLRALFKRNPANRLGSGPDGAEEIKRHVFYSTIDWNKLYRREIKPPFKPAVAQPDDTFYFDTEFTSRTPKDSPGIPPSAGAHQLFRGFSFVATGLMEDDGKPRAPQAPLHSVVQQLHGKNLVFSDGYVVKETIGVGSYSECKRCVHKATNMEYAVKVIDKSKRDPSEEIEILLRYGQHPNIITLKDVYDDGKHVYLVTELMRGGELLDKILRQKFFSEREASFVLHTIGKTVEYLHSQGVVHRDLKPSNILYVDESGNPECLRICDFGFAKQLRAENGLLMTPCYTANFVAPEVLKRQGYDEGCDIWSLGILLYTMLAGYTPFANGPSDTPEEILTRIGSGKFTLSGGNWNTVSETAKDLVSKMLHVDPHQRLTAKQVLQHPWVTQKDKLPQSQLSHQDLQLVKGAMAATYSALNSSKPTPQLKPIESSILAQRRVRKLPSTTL

[22] = target: kinases (KINOMEscan panel) (Homo sapiens, UniProt Q13188); type: binding
[23] = target: kinases (KINOMEscan panel) (Homo sapiens, UniProt P35968); type: binding
[24] = target: kinases (KINOMEscan panel) (Homo sapiens, UniProt O75676); type: binding; settings: NEW KINOMEscan
kinases (KINOMEscan panel) (Homo sapiens, UniProt O75676), sequence (O75676 whole entry): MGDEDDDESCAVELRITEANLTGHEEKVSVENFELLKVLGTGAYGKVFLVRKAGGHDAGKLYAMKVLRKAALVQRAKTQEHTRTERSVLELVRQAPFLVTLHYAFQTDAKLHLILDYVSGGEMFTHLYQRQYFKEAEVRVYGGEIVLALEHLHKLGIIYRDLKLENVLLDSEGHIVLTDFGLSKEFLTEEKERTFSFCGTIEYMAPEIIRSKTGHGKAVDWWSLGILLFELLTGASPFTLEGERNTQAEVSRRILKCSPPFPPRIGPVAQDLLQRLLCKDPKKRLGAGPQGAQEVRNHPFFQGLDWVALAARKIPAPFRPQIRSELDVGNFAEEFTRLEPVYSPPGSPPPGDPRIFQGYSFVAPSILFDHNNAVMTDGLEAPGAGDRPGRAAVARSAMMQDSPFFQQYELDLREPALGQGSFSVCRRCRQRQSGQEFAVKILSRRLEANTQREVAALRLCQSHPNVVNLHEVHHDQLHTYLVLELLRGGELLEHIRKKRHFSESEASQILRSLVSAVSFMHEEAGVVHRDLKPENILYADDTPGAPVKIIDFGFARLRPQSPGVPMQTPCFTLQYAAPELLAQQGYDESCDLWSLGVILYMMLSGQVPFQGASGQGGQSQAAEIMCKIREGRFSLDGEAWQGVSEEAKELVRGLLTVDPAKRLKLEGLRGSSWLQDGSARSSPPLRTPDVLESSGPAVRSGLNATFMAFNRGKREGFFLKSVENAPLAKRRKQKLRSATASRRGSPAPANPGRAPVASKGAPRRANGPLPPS

[25] = target: kinases (KINOMEscan panel) (Homo sapiens, UniProt Q13164); type: binding
[26] = target: kinases (KINOMEscan panel) (Homo sapiens, UniProt P36507); type: binding
[27] = target: kinases (KINOMEscan panel) (Homo sapiens, UniProt Q9Y2K2); type: binding
[28] = target: kinases (KINOMEscan panel) (Homo sapiens, UniProt P07947); type: binding
[29] = target: kinases (KINOMEscan panel) (Homo sapiens, UniProt Q99683); type: binding
[30] = target: kinases (KINOMEscan panel) (Homo sapiens, UniProt P23443); type: binding
[31] = target: kinases (KINOMEscan panel) (Homo sapiens, UniProt Q14289); type: binding
[32] = target: kinases (KINOMEscan panel) (Homo sapiens, UniProt Q13882); type: binding
[33] = target: kinases (KINOMEscan panel) (Homo sapiens, UniProt Q92918); type: binding
kinases (KINOMEscan panel) (Homo sapiens, UniProt Q92918), sequence (Q92918 whole entry): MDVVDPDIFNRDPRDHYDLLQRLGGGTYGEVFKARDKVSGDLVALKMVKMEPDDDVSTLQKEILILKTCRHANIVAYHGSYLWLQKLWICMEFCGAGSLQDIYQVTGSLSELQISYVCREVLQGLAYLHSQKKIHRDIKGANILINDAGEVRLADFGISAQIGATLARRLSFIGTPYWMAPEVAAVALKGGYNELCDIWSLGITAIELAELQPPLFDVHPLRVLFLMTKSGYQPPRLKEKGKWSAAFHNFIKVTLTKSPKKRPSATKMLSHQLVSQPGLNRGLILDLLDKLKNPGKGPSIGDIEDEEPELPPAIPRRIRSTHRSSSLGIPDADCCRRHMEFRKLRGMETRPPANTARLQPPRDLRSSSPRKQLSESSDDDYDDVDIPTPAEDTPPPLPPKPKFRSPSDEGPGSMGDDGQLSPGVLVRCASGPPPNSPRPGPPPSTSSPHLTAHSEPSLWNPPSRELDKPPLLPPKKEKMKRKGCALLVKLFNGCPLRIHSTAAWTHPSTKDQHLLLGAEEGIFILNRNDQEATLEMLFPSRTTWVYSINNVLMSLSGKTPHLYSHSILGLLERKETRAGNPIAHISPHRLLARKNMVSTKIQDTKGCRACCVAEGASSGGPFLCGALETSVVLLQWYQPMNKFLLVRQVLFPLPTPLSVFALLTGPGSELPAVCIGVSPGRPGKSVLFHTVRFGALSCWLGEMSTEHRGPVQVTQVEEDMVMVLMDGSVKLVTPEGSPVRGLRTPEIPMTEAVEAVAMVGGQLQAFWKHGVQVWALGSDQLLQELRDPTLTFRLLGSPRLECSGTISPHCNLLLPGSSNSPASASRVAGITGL

[34] = target: kinases (KINOMEscan panel) (Homo sapiens, UniProt Q15831); type: binding
[35] = target: kinases (KINOMEscan panel) (Homo sapiens, UniProt Q15349); type: binding
kinases (KINOMEscan panel) (Homo sapiens, UniProt Q15349), sequence (Q15349 whole entry): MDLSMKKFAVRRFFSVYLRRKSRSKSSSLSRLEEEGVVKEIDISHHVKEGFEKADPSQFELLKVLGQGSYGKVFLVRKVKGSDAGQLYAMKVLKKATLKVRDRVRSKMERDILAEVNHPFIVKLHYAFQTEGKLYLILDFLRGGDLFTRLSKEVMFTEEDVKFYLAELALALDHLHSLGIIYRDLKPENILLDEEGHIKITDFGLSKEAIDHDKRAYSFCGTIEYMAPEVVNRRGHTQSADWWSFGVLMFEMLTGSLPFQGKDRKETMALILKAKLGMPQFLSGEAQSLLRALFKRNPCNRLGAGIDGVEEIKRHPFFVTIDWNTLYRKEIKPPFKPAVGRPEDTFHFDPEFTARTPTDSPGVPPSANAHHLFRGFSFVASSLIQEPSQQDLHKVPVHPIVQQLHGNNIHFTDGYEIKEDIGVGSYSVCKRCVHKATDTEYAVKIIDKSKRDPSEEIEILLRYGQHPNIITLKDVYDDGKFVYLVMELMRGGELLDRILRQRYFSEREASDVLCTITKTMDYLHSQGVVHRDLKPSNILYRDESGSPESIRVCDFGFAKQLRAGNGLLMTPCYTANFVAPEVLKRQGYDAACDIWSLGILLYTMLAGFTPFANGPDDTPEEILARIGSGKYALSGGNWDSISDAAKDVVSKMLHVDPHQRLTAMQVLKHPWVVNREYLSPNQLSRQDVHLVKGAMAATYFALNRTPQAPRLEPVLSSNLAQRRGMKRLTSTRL

[36] = target: kinases (KINOMEscan panel) (Homo sapiens, UniProt Q9UEE5); type: binding
[37] = target: kinases (KINOMEscan panel) (Homo sapiens, UniProt Q02750); type: binding
[38] = target: kinases (KINOMEscan panel) (Homo sapiens, UniProt Q16620); type: binding

In the case of `Cc1cccc(-c2nc(Nc3ccc4ncsc4c3)c3ccccc3n2)n1` [NK140], the “KiNativ in-cell binding, % Inhibition, SRPK1, SRPK2” value [1] was 80.8%.
In the case of `Cc1cccc(-c2nc(N(C)c3ccc4ncsc4c3)c3ccccc3n2)n1` [NK-161], the “KINOMEscan MAPK4/ERK4” value [2] was 6, the “KINOMEscan MAP2K5/MEK5” value [3] was 0 and the “KINOMEscan MAP2K3/MEK3” value [4] was 0. For the same molecule, the “KINOMEscan NIM1K/NIM1” value [5] was 12, the “KINOMEscan MAP2K4/MEK4” value [6] was 0 and the “KINOMEscan SLTM/MET” value [7] was 11. The “KINOMEscan MAP3K12/DLK” value [8] was 0, the “KINOMEscan MAPK6/ERK3” value [9] was 14 and the “KINOMEscan PTK2/FAK” value [10] was 0. The “KINOMEscan SBK3/SgK110” value [11] was 0, the “KINOMEscan TEK/TIE2” value [12] was 13 and the “KINOMEscan MAPK8/JNK1” value [13] was 0. For the same molecule, the “KINOMEscan STK32B/YANK2” value [14] was 17, the “KINOMEscan MAPK1/ERK2” value [15] was 6 and the “KINOMEscan RPS6KA5(Kin.Dom.1-N-terminal)” value [16] was 21. The “KINOMEscan RPS6KA5(Kin.Dom.2-C-terminal)” value ([16]; kinase RPS6KA5(Kin.Dom.2-C-terminal)) was 0, the “KINOMEscan STK38L/NDR2” value [17] was 0 and the “KINOMEscan STK17B/DRAK2” value [18] was 4. The “KINOMEscan RPS6KA3/RSK2(Kin.Dom.1-N-terminal)” value [19] was 5, the “KINOMEscan RPS6KA3/RSK2(Kin.Dom.2-C-terminal)” value [19] was 27 and the “KINOMEscan MAP2K6/MEK6” value [20] was 12. For the same molecule, the “KINOMEscan RPS6KA1/RSK1(Kin.Dom.1-N-terminal)” value [21] was 9, the “KINOMEscan RPS6KA1/RSK1(Kin.Dom.2-C-terminal)” value [21] was 34 and the “KINOMEscan STK3/MST2” value [22] was 0. The “KINOMEscan KDR/VEGFR2” value [23] was 4, the “KINOMEscan RPS6KA4(Kin.Dom.1-N-terminal)” value ([24]; RPS6KA4(Kin.Dom.1-N-terminal)) was 0 and the “KINOMEscan RPS6KA4(Kin.Dom.2-C-terminal)” value ([24]; RPS6KA4(Kin.Dom.2-C-terminal)) was 0. The “KINOMEscan MAPK7/ERK5” value [25] was 0, the “KINOMEscan MAP2K2/MEK2” value [26] was 27 and the “KINOMEscan SIK3/QSK” value [27] was 0. The “KINOMEscan YES1/YES” value [28] was 0, the “KINOMEscan MAP3K5/ASK1” value [29] was 0 and the “KINOMEscan RPS6KB1/S6K1” value [30] was 0. For the same molecule, the “KINOMEscan PTK2B/PYK2” value [31] was 9, the “KINOMEscan PTK6/BRK” value [32] was 0 and the “KINOMEscan MAP4K1/HPK1” value [33] was 0. For the same molecule, the “KINOMEscan STK11/LKB1” value [34] was 0, the “KINOMEscan RPS6KA2/RSK3(Kin.Dom.1-N-terminal)” value [35] was 0 and the “KINOMEscan RPS6KA2/RSK3(Kin.Dom.2-C-terminal)” value [35] was 16. The “KINOMEscan STK17A/DRAK1” value [36] was 0, the “KINOMEscan MAP2K1/MEK1” value [37] was 32 and the “KINOMEscan NTRK2/TRKB” value [38] was 45.
